| Compound | melting point [°C] |
| --- | --- |
| O=C(O)CC[N+](=O)[O-] [3-Nitropropanoic acid] | 64 |
| CC(C)CCCC(C)C1CCC2C3CC=C4CC(OCOc5ccc(Cl)cc5)CCC4(C)C3CCC12C (centres undefined) [3-[(4-chlorophenoxy)methoxy]cholest-5-ene] | 145 |
| O=C1C=C(/C=C/c2ccccc2)CCC1 [3-[(E)-2-phenylethenyl]cyclohex-2-en-1-one] | 66 |
| N#CC(=CN(O)c1ccccc1)c1ccccc1 [3-[hydroxy(phenyl)amino]-2-phenylprop-2-enenitrile] | 155 |
| CC(=O)Oc1cccc(C(=O)O)c1C [3-acetoxy-2-methylbenzoic acid] | 150 |
| CC(=O)Oc1cccc(C(C)=O)c1 [3-acetoxy_acetophenone] | 44 |
| CC(=O)OC1(C(C)=O)CCC2(C)C(CCC3C4CCCC4(C)CCC32)C1 (centres undefined) [3-acetylandrostan-3-yl acetate] | 165 |
| Nc1nc[nH]n1 [3-amino-1,2,4-triazole] | 151 |
| Nc1cccnc1[N+](=O)[O-] [3-amino-2-nitropyridine] | 192 |
| Nc1cc(C(=O)O)ccc1Cl [3-amino-4-chlorobenzoic acid] | 216 |
| Nc1cc(C(=O)O)cc(C(F)(F)F)c1 [3-amino-5-(trifluoromethyl)benzoic acid] | 144 |
| Cc1cc(N)n[nH]1 [3-amino-5-methyl-1h-pyrazole] | 45 |
| CSc1[nH]nc(N)c1C#N [3-amino-5-methylthio-1h-pyrazole-4-carbonitrile] | 149 |
| CC(C)(C)c1cc(N)n[nH]1 [3-amino-5-tert-butyl-1h-pyrazole] | 77 |
| Nc1cc2ccccc2oc1=O [3-aminocoumarin] | 136 |
| NC(=O)c1sccc1N [3-aminothiophene-2-carboxamide] | 121 |
| OB(O)c1cccc(OCc2ccccc2)c1 [3-benzyloxybenzeneboronic acid] | 123 |
| COc1ccc(Br)c(OC)c1C(=O)O [3-bromo-2,6-dimethoxybenzoic acid] | 146 |
| O=[N+]([O-])c1ncccc1Br [3-bromo-2-nitropyridine] | 104 |
| Cc1ccc(N)cc1Br [3-bromo-4-methylaniline] | 27 |
| O=[N+]([O-])c1cc[n+]([O-])cc1Br [3-bromo-4-nitropyridine n-oxide] | 153 |
| O=C(O)c1cccc(Br)c1 [3-bromobenzoic acid] | 156 |
| N#CCc1cccc(Br)c1 [3-bromophenylacetonitrile] | 27 |

| Compound | melting point [°C] |
| --- | --- |
| CCCC(=O)c1cc2ccccc2oc1=O [3-butyrylcoumarin] | 94 |
| O=C(O)c1cc(B(O)O)ccc1F [3-carboxy-4-fluorobenzeneboronic acid] | 218 |
| O=C(O)c1cccc(Cl)c1[N+](=O)[O-] [3-chloro-2-nitrobenzoic acid] | 237 |
| Nc1ccc(F)c(Cl)c1 [3-chloro-4-fluoroaniline] | 46 |
| NC(=O)c1ccc(F)c(Cl)c1 [3-chloro-4-fluorobenzamide] | 146 |
| O=Cc1ccc(B(O)O)cc1Cl [3-chloro-4-formylbenzeneboronic acid] | 212 |
| Cc1ccc(C(=O)O)cc1Cl [3-chloro-4-methylbenzoic acid] | 199 |
| O=C(O)c1cccc(Cl)c1 [3-chlorobenzoic acid] | 157 |
| CC(C)CCCC(C)C1CCC2C3CC=C4CC(Cl)CCC4(C)C3CCC12C (centres undefined) [3-chlorocholest-5-ene] | 93 |
| N#CCCCl [3-chloropropionitrile] | -50 |
| N#Cc1cccc(C(=O)O)c1 [3-cyanobenzoic_acid] | 223 |
| N#Cc1cccnc1 [3-cyanopyridine] | 50 |
| O=C(O)C1CC=CCC1 (centres undefined) [3-cyclohexene-1-carboxylic acid] | 17 |
| CCOc1cccc(B(O)O)c1 [3-ethoxybenzeneboronic acid] | 144 |
| CCC1(O)CCC2(C)C(CCC3C4CCC(=O)C4(C)CCC32)C1 (centres undefined) [3-ethyl-3-hydroxyandrostan-17-one] | 115 |
| CCc1cccc(C)c1 [3-ethyltoluene] | -96 |
| O=Cc1ccc(B(O)O)cc1F [3-fluoro-4-formylbenzeneboronic acid] | 240 |
| COc1ccc(B(O)O)cc1F [3-fluoro-4-methoxybenzeneboronic acid] | 238 |
| Cc1ccc(N)cc1F [3-fluoro-4-methylaniline] | 33 |
| Cc1ccc(C(=O)O)cc1F [3-fluoro-4-methylbenzoic acid] | 170 |
| O=C(O)c1cc(F)cc(C(F)(F)F)c1 [3-fluoro-5-(trifluoromethyl)benzoic acid] | 104 |
| CCCC(=O)CC [3-hexanone] | -55 |
| COc1ccc2oc(-c3cc(OC)c(OC)cc3OC)c(O)c(=O)c2c1 [3-hydroxy-2',4',5',6-tetramethoxyflavone] | 202 |

| Compound | melting point [°C] |
| --- | --- |
| O=C(O)c1ccc([N+](=O)[O-])c(O)c1 [3-hydroxy-4-nitrobenzoic acid] | 234 |
| O=C1OC(c2ccccc2)(c2ccccc2)C=C1O [3-hydroxy-5,5-diphenylfuran-2(5H)-one] | 127 |
| COc1ccc2c(c1)C(O)OC2=O (centres undefined) [3-hydroxy-5-methoxy-2-benzofuran-1(3H)-one] | 137 |
| COc1cccc2oc(-c3ccccc3)c(O)c(=O)c12 [3-hydroxy-5-methoxyflavone] | 175 |
| N#Cc1cccc(O)c1 [3-hydroxybenzonitrile] | 80 |
| CC(O)CC(=O)O (centres undefined) [3-hydroxybutyric acid] | 38 |
| C=CCI [3-iodo-1-propene] | -99 |
| Nc1cccc(I)c1 [3-iodoaniline] | 23 |
| O=C(O)c1cccc(I)c1 [3-iodobenzoic acid] | 187 |
| O=C(O)Cc1cccc(I)c1 [3-iodophenylacetic acid] | 130 |
| Cc1cccc(I)c1 [3-iodotoluene] | -27 |
| O=C(O)CCS [3-mercaptopropionic acid] | 18 |
| COc1cc(B(O)O)ccc1C [3-methoxy-4-methylbenzeneboronic acid] | 193 |
| COc1ccc2c(c1)CC2=O [3-methoxybicyclo[4.2.0]octa-1,3,5-trien-7-one] | 52 |
| CC1=CC(=O)CC1 [3-methyl-2-cyclopenten-1-one] | 2 |
| CC1c2ccccc2C(=O)C1c1ccccc1 (centres undefined) [3-methyl-2-phenyl-2,3-dihydro-1H-inden-1-one] | 85 |
| Cc1ccc[nH]c1=O [3-methyl-2-pyridone] | 140 |
| Cc1ccc2cc3c(ccc4ccccc43)c3c2c1CC3 [3-methylcholanthrene] | 180 |
| CCCCCCCC(C)CC (centres undefined) [3-methyldecane] | -76 |
| CCCCC(C)CC (centres undefined) [3-methylheptane] | -121 |
| Cc1c[nH]c2ccccc12 [3-methylindole] | 96 |
| Cc1cc2ccccc2[n+]([O-])c1 [3-methylquinoline n-oxide] | 89 |
| CCCC1=NNC(=O)C1 [3-n-propyl-2-pyrazolin-5-one] | 208 |

From the Bradley open melting point set (2014)
